Earlier results as cited in PMC9885524 (Journal of natural products, 2023).

System: live SARS-CoV-2
Details: read-out: half-maximal effective concentrations against live SARS-CoV-2 in vitro; depending on the SARS-CoV-2 variant

Q: With `Oc1ccc([C@@H]2c3c(O)cc(O)cc3[C@@H]3c4c(cc(O)cc4[C@H]2[C@@H]2c4cc(O)cc5c4[C@@H](c4cc(O)cc(O)c4[C@H]2c2ccc(O)cc2)[C@H](c2ccc(O)cc2)O5)O[C@H]3c2ccc(O)cc2)cc1` [(−)-hopeaphenol, (−)-Hopeaphenol] as the compound, how does the EC50 read?
A: 7.5 to 23 µM
